Experimental data taken from patent publication US20120122181A1, “METHOD FOR DETERMINING ANTAGONIST ACTIVITY TO A CYTOKININ RECEPTOR” (SUMITOMO CHEMICAL COMPANY, LIMITED, priority 2001, published 2012).
Values belong to the compound of their own block, whether it stands above or below them.

How the values were obtained:
[1] = target: T1, cytokinin receptor AHK2 Δ (transformed cell TM182-AHK2 Δ) (Arabidopsis thaliana, UniProt Q9C5U2); test: Searching agonist-activity to cytokinin receptor (Part 1), optical density of liquid culture; assay type: cell-based; set-up: one added initiator methionine (ATG added 5' of codon 196) (N); expressed in transfected cells; host or cells: Saccharomyces cerevisiae TM182 (sln1 deletion), plasmid p415CYC-AHK2 Δ; details: examinee substance 100 μM final concentration, DOLU+Gul medium, 30° C., 24 hours; DMSO blank 0
T1 sequence (Q9C5U2 196-1176): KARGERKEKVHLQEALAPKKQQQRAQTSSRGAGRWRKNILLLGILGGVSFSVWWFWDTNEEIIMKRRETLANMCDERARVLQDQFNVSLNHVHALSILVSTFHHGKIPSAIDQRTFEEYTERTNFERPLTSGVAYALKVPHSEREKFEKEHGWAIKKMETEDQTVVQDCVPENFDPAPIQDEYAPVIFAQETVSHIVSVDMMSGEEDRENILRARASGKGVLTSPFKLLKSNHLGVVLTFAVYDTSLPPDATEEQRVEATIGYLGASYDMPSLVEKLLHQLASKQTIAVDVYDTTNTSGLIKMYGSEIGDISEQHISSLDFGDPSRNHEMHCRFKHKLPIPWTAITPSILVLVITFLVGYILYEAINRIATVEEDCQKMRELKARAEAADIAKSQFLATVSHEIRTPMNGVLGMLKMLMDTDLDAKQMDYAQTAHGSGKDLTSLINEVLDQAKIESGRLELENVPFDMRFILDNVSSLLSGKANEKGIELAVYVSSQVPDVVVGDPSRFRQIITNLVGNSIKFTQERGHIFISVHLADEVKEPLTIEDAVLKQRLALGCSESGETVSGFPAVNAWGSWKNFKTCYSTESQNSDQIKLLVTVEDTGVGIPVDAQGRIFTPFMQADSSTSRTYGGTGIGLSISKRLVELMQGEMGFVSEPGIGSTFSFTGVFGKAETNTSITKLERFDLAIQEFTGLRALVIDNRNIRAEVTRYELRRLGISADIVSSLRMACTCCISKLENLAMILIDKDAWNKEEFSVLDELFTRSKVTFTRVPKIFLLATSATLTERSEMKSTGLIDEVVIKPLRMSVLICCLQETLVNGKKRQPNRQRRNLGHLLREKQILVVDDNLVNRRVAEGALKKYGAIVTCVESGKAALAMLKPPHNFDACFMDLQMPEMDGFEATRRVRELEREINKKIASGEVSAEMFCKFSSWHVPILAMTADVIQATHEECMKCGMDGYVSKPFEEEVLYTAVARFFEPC
Method: The transformed cells TM182-CRE1, TM182-AHK2, TM182-AHK2 Δ and TM182-AHK3 produced in the example 12 were inoculated in 200 ml of DOLU+Gal culture media and pre-cultured at 30° C. for 36 hours. The pre-cultured solutions were diluted with DOLU+Gul media as to become 0.100 as the optical density (0D600) and further the resultants were diluted with DOLU+Gul media at a dilution rate of 1/200 to obtain diluted pre-cultured solutions.
An assay plate was prepared by filling respective wells of a 96-well plate with 20 μl of solutions which were prepared by diluting DMSO solution (10 mM) of each examinee substance with DOLU+Gul medium at a dilution rate of 1/100, said solutions containing each examinee substance to be 100 μM at the final concentration. […]
The diluted pre-cultured solutions were added in 200 μl each into the respective wells of both assay plates and cultured at 30° C. for 24 hours and then the optical density (0D620) of each well was measured by a plate reader. The agonist-activity of the examinee substances to the cytokinin receptor was detected by comparing the optical density measured in the testing sections to which the examinee substances were added with the optical density measured in the blank sections.

[2] = target: T2, cytokinin receptor CRE1 (transformed cell TM182-CRE1) (Arabidopsis thaliana, UniProt Q9C5U0, S567G/T1018A); details: DOLU+Gul agar, concentrations 1 nM to 100 μM, 30° C., 30 hours
T2 sequence (Q9C5U0 24-1080 S567G/T1018A): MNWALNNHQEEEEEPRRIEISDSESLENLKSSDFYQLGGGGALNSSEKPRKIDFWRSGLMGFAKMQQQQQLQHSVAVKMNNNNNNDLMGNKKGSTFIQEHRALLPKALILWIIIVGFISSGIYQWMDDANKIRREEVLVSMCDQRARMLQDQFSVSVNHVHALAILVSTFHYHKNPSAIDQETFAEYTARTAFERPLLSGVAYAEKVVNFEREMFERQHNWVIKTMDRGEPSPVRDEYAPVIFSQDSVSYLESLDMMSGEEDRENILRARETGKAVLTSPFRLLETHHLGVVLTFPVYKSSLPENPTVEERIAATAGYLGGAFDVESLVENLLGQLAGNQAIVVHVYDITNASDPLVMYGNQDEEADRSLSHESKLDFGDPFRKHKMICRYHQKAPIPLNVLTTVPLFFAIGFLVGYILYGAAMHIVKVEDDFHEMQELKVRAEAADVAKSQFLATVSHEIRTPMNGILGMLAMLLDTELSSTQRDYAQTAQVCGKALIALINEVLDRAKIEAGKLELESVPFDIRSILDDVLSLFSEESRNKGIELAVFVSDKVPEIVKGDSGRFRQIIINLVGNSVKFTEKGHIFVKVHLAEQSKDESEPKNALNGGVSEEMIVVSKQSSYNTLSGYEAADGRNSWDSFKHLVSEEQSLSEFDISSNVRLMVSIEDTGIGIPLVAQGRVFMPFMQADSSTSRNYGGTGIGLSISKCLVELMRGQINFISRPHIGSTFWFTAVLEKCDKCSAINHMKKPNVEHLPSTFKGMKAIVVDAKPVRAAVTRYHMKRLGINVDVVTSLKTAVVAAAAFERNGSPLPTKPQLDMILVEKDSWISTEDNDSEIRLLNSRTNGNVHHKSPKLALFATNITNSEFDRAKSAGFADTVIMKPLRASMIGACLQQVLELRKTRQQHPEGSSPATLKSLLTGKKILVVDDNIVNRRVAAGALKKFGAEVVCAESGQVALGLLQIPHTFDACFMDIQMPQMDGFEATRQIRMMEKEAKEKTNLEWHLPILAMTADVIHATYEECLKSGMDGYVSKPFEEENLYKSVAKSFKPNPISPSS
Method: (§1) After incubation, the growth state of the transformed cells was observed and photographed by a digital camera.
(§2) The lowest supply concentrations of trans-zeatin and cis-zeatin in which the respective transformed cells could be grown were shown in Table 1.

[3] = target: T1, cytokinin receptor AHK2 Δ (transformed cell TM182-AHK2 Δ); details: DOLU+Gul agar, concentrations 1 nM to 100 μM, 30° C., 30 hours
Method: as §1, §2

[4] = target: T3, cytokinin receptor AHK2 (transformed cell TM182-AHK2) (Arabidopsis thaliana, UniProt Q9C5U2); details: DOLU+Gul agar, concentrations 1 nM to 100 μM, 30° C., 30 hours
T3 sequence (Q9C5U2 1-1176): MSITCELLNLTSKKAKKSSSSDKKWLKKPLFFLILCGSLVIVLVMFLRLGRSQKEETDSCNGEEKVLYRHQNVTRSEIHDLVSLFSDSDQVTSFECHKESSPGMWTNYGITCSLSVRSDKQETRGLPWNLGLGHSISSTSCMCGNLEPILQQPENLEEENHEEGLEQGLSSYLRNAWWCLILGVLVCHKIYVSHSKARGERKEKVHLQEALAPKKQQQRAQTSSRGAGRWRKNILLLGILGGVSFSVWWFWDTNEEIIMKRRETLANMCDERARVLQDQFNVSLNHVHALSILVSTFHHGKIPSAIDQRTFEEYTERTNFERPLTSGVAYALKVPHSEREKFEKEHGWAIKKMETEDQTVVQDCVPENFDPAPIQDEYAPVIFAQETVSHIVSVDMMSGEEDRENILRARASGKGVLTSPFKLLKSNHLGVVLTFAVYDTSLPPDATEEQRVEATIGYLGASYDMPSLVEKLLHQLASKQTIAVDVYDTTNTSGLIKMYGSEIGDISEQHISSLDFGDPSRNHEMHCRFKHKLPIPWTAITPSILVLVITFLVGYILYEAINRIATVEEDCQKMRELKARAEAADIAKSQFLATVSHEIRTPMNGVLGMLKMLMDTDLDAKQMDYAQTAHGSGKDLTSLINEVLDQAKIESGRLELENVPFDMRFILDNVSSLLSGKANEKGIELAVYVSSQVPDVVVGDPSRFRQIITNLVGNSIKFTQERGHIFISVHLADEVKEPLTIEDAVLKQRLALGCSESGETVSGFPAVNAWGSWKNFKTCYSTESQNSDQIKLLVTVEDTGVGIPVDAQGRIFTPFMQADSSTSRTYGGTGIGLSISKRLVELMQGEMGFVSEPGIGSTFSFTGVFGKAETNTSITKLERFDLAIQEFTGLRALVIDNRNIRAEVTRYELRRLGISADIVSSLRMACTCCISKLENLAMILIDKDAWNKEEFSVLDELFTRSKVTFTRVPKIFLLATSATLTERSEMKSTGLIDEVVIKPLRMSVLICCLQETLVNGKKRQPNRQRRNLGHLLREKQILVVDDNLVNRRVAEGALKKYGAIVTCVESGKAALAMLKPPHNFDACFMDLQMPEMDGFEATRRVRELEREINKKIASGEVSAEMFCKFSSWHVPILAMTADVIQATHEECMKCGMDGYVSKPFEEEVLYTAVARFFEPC
Method: as §1, §2

[5] = target: T3, cytokinin receptor AHK2 (transformed cell TM182-AHK2); details: DOLU+Gul agar containing 10 μM trans-zeatin, 30° C., 30 hours; compared with media containing no trans-zeatin
Method: (§3) Transformation of TM182 (S1n1 Δ), S1n1 genetically detected strain, [Maeda T et al. Nature: 369 242-245 (1994)] was carried out using the obtained expression plasmid p415CYC-CRE1 (the example 5), p415CYC-AHK2 (the example 11), p415CYC-AHK2Δ (the example 11) and p415CYC-AHK3 (the example 8). The transformation was carried out by employing Polyethylene glycol/lithium acetate (PEG/LiAc)-mediated transformation method according to the description of VII. Library Transformation & Screening Protocols disclosed in […] Two-Hybrid System 3 User Manual p.
as §1

[6] = target: T2, cytokinin receptor CRE1 (transformed cell TM182-CRE1); details: DOLU+Gul agar containing 10 μM trans-zeatin, 30° C., 30 hours; compared with media containing no trans-zeatin
Method: as §3, §1

[7] = target: T1, cytokinin receptor AHK2 Δ (transformed cell TM182-AHK2 Δ); details: DOLU+Gul agar containing 10 μM trans-zeatin, 30° C., 30 hours; compared with media containing no trans-zeatin
Method: as §3, §1

[8] = target: T4, cytokinin receptor AHK3 (transformed cell TM182-AHK3) (Arabidopsis thaliana, UniProt Q9C5U1); details: DOLU+Gul agar containing 10 μM trans-zeatin, 30° C., 30 hours; compared with media containing no trans-zeatin
T4 sequence (Q9C5U1 1-1036): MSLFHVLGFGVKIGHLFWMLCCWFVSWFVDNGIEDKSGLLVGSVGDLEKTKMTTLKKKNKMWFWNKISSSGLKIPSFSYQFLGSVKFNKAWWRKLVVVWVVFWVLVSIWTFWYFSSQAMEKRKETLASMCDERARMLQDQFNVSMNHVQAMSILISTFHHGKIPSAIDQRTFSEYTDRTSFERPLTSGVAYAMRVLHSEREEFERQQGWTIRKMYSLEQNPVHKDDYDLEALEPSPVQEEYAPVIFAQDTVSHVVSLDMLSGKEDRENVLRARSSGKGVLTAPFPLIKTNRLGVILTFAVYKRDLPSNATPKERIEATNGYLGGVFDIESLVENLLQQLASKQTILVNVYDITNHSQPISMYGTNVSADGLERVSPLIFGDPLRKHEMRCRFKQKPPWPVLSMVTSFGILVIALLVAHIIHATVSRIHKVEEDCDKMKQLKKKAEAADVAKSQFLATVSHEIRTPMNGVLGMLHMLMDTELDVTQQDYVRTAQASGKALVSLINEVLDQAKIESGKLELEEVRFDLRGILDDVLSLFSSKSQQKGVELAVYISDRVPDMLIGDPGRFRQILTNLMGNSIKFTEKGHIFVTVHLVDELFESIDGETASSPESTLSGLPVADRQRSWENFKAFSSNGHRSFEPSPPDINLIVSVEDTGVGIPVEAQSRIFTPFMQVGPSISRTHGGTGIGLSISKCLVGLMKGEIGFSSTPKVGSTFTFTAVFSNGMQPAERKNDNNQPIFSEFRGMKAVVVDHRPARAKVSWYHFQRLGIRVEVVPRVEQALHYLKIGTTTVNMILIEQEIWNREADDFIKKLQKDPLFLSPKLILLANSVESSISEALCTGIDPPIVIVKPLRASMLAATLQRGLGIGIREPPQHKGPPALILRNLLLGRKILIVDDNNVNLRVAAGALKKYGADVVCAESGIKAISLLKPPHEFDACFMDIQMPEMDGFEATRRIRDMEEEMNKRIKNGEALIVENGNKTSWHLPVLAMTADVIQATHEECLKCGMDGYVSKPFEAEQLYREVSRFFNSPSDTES
Method: as §3, §1

Structure (SMILES): CC1=CC(=O)CC(C)(C)[C@@]1(O)/C=C/C(C)=C\C(=O)O [Compound A, Abscisic acid]
optical density (OD620) of the culture solution, TM182-AHK2 Δ [1]: 0

lowest supply concentration in which the transformed cells could be grown, TM182-CRE1 [2]: no growth
lowest supply concentration in which the transformed cells could be grown, TM182-AHK2 A [3]: 1 µM
Structure (SMILES): C/C(=C/CNc1ncnc2nc[nH]c12)CO [cis-zeatin]

Structure (SMILES): C/C(=C\CNc1ncnc2nc[nH]c12)CO [trans-zeatin]
lowest supply concentration in which the transformed cells could be grown, TM182-AHK2 [4]: 1 µM
growth state of transformed cells TM182-AHK2 [5]: high growth
growth state of transformed cells TM182-CRE1 [6]: high growth
growth state of transformed cells TM182-AHK2 Δ [7]: high growth
growth state of transformed cells TM182-AHK3 [8]: high growth
